Converted amounts (≈) assume the structure as drawn. Where two headings read alike, the source gives them in different places.
Tests used:
sodium channel SCN5A = sodium channel SCN5A (Homo sapiens (Human), UniProt Q14524); test: Patch clamp electrophysiology assay, sodium channel; type: cell-based; conditions: pH 7.4, 10 μM, HEK293, read-out: Na % Inhibition
Protocol: (§1) Compound Electrophysiology Assays
(§2) Recombinant ion channels (hERG, sodium [SCN5A], and L-type calcium [Cav1.2]) stably expressed in human embryonic kidney cells (HEK293) are used as test systems, and each system is tested using 2-3 replicates in the conventional patch clamp assay.
(§3) Ion channel membrane current recordings are made with a Multiclamp 700 series integrating patch-clamp amplifier (Axon Instruments, Foster City, Calif.) using the whole-cell variant of the patch-clamp technique.
Cells expressing hERG, sodium [SCN5A], or L-type calcium [Cav1.2] channels are placed in a plexiglass bath chamber, mounted on the stage of an inverted microscope, and perfused continuously with bath solution.
The sodium current bath solution contains (in mM): 70 NaCl, 70 NMDG, 4 KCl, 1.8 CaCl2, 1 MgCl2, 10 glucose, 10 HEPES (pH 7.4, NaOH). The patch pipette filling solution used in sodium experiments contains (in mM): 130 KCl, 1 MgCl2, 1 CaCl2, 5 ATP-K2, 10 EGTA, 10 HEPES (pH 7.2, KOH).
For determining steady state inhibition, sodium currents are elicited every 5 seconds (0.2 Hz) using the following voltage protocol. Cells are held at a potential of −90 mV and stepped to −20 mV for 45 ms. The peak sodium current in response to the depolarizing step to −20 mV is monitored in the control buffer and after application of test article until a new steady state in the presence of the test article is achieved. To assess the rate dependent inhibition of the sodium currents, trains of voltage steps at frequencies of 1 and 4 Hz (30 sweeps each) are applied to the cell prior to application of test article (control) and after steady state inhibition by test article, as determined at 0.2 Hz frequency. The voltage waveform used in the rate dependence experiments is the same as the waveform used for evaluating steady state inhibition at 0.2 Hz stimulation frequency. Rate dependent inhibition is calculated by comparing the 30th voltage sweep in presence of test article to the 30th voltage sweep under control conditions at each frequency tested.
Compounds are tested in 3 cells at each concentration in each ion channel assay. Currents are sampled at rates at least 2 times the low pass filter rate. The flow rate is kept constant throughout the experiments. All currents were recorded at room temperature ˜25° C. IC50 values are calculated using the sigmoidal concentration-response equation Y=A+((B−A)/(1+((C/X)^D))) in XLfit where A and B are the minimum and maximum % inhibition, C is the IC50 and D is the slope factor.
Find below in Table 11 data for compared compounds (See WO 2011/127106 A1).

hERG = hERG (Homo sapiens (Human), UniProt Q12809); test: Patch clamp electrophysiology assay, hERG; type: cell-based; conditions: HEK293 cells stably expressing hERG, pH 7.4
Protocol: as §1, §2, §3
Cells expressing hERG, sodium [SCN5A], or L-type calcium [Cav1.2] channels are placed in a plexiglass bath chamber, mounted on the stage of an inverted microscope, and perfused continuously with bath solution. […]
Initially, a current-voltage relationship is generated in the control bath solution using the following voltage protocol. hERG currents are elicited by 2 second step depolarizations applied from a holding potential of −80 mV to test potentials ranging from −70 mV to +60 mV. […] The peak tail current is monitored until a new steady-state in the presence of test article was achieved. This is followed by the application of the next higher concentration of test article to be tested, and is repeated until all concentrations of test article have been evaluated. Effects of test article on hERG channel are calculated by measuring inhibition of peak tail currents. […]

male C57BL/6J mice = test: Mouse oral glucose tolerance test; type: in vivo; conditions: for Glucose Lowering: at the minimally efficacious dose, plasma glucose AUC in oGTT; for Minimally efficacious Dose: oGTT in C57BL/6J mice
Protocol: Mouse Oral Glucose Tolerance Test
Twenty four (24) male C57BL/6J mice (8-10 weeks old, average weight 28 g) were randomized into 4 groups (1 mouse/cage) of 6 mice per group based on fed plasma glucose and body weight. Prior to initiating the study, mice were fasted overnight and the next morning they were weighed and placed in the experimental lab. After 30 min in the environment, the mice were bled via tail tip at −60 min and immediately given their first oral administration of vehicle (40% PEG400, 10% Cremophor EL, 50% water) or compound solutions (5 ml/kg). At time 0 the mice were bled and given 50% glucose (2 g/kg) to initiate the oral glucose tolerance test (oGTT). The mice were bled 30, 60 and 120 min after the glucose load. Blood samples were drawn into potassium EDTA, placed on ice during the study and subsequently centrifuged for 10 min at 3000 rpm at 4° C. Plasma samples were diluted 11-fold for glucose analysis in the COBAS MIRA® System (Roche Diagnostics). Area under the curve was calculated from the plasma glucose time course data using the trapezoid rule with fasting plasma glucose as the baseline (GraphPad Prism Software). The statistical significance of the changes in the glucose AUCs resulting from the different treatments was determined by one-way ANOVA followed by Dunnett's test using the vehicle group as the control (JMP software, release 5.1.2).
Find below in Table 7 data for compared compounds (See WO 2009/012275 A1).

FaSSIF solubility assay = type: physicochemical; conditions: thermodynamic from solid, FaSSIF buffer, 37° C.
Protocol: Approximately 5-10 mg of accurately weighed test compound was transferred to a glass vial containing 4 mL of a FaSSIF buffer (PharesAG, prepared according to manufactures protocol). The vial was then rotated at 37° C. for 24 h. After equilibration time had been met, the test solution was centrifuge filtered through a 0.45 um PTFE membrane filter. The filtrate was then analyzed by HPLC/UV against a set of standard injections to determine compound concentration.
Find below in Table 9 data for compared compounds (See WO 2011/127106 A1).

Chain of sodium channel SCN5A (Q14524 whole entry): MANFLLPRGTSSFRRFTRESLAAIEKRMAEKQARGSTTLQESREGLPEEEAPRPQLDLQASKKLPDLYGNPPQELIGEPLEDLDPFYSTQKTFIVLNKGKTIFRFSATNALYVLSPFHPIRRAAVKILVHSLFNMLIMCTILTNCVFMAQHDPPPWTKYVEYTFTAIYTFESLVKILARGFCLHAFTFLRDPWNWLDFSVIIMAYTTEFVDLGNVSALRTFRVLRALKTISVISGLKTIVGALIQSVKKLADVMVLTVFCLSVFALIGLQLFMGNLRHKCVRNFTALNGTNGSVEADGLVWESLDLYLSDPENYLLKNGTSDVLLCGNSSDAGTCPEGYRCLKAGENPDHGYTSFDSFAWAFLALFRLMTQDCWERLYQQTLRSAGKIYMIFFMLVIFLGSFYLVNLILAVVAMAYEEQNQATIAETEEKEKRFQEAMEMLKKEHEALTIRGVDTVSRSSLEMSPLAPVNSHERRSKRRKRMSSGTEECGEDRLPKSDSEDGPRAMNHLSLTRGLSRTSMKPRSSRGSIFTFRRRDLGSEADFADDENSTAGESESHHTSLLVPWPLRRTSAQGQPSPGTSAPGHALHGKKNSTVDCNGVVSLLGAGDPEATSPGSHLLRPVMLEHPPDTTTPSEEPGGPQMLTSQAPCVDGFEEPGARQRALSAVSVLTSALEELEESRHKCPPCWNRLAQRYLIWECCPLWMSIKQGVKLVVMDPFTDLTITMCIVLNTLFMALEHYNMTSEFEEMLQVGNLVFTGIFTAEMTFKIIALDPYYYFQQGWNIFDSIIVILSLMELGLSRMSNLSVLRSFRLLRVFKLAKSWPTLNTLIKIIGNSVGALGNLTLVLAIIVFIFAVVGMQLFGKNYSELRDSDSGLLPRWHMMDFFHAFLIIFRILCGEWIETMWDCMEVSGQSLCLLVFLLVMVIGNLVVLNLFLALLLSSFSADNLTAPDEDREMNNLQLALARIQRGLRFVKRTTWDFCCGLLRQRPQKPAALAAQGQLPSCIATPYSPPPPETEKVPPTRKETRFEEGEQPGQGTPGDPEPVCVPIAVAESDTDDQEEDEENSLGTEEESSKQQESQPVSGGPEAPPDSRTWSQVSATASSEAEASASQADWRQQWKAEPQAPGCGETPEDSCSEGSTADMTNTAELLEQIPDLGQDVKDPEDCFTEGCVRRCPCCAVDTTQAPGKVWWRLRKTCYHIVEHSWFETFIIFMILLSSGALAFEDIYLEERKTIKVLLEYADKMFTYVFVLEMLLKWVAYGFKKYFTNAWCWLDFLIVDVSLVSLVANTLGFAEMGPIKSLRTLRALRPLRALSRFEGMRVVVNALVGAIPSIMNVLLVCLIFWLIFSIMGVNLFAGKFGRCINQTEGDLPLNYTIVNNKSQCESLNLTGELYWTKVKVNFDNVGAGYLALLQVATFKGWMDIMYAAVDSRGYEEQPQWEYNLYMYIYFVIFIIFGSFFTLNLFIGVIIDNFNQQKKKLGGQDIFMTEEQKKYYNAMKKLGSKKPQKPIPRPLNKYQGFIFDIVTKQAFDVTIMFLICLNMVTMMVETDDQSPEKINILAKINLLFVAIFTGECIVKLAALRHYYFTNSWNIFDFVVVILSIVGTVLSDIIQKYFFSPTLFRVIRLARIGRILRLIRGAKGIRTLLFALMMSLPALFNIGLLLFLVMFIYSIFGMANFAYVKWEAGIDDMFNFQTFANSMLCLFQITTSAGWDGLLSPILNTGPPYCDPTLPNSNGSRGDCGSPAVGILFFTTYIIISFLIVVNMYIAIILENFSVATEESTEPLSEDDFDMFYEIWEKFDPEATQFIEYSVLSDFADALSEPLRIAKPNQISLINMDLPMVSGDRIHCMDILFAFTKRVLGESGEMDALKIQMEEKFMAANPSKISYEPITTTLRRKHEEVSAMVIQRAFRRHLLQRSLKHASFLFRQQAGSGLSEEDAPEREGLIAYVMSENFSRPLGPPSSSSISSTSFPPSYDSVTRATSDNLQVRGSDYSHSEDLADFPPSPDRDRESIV
Chain of hERG (Q12809 whole entry): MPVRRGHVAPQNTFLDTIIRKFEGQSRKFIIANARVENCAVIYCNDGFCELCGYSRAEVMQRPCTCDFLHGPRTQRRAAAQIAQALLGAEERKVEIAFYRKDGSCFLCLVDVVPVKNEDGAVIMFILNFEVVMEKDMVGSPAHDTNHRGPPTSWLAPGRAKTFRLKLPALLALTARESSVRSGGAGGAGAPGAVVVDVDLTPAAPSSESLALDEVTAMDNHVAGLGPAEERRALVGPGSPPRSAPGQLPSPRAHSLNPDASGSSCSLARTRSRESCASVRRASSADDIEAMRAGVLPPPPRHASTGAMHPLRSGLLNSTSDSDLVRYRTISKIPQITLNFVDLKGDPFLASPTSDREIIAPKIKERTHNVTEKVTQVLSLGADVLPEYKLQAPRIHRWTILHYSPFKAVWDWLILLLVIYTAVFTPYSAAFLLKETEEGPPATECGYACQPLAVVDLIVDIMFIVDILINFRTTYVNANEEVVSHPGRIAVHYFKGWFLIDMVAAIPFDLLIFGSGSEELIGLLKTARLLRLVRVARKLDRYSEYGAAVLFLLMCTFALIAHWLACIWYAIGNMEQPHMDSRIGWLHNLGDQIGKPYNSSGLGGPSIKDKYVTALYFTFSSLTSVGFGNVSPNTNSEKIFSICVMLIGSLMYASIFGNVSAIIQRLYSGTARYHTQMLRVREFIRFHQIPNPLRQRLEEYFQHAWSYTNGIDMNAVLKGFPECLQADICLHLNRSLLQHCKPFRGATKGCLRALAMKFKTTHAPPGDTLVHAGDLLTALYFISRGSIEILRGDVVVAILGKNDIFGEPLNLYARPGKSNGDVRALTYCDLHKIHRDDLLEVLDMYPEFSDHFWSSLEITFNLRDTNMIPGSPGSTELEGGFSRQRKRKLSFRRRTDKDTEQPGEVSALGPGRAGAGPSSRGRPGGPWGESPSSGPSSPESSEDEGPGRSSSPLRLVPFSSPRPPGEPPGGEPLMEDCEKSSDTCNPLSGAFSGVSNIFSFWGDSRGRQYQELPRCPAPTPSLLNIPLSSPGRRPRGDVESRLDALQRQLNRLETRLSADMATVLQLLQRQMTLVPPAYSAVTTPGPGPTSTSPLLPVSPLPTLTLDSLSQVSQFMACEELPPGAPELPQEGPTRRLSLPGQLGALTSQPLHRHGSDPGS

solubility at 24 h (FaSSIF solubility assay) | SMILES | inhibition at 10 µM (sodium channel SCN5A; 1 Hz) | inhibition at 10 µM (sodium channel SCN5A; 4 Hz) | inhibition at 30 µM (hERG) | Glucose Lowering (male C57BL/6J mice) | Minimally efficacious Dose (male C57BL/6J mice) | inhibition at 10 µM (sodium channel SCN5A; human, 1 Hz) | inhibition at 10 µM (sodium channel SCN5A; human, 4 Hz)
 | Cc1nc(-n2cc(Cl)c(OC3CCN(c4ncc(Cl)cn4)CC3)cc2=O)ccc1N1CC[C@H](O)C1=O [Example 3, (S)-5-chloro-4-((1-(5-chloropyrimidin-2-yl)piperidin-4-yl)oxy)-5′-(3-hydroxy-2-oxopyrrolidin-1-yl)-6′-methyl-2H-[1,2′-bipyridin]-2-one] | 14% | 23% | 33% | −26% | 0.03 mg/kg |  | 
11 µg/mL (≈ 20.7 µM) | Cc1nc(-n2cc(Cl)c(OC3CCN(c4ncc(Cl)cn4)CC3)cc2=O)ccc1N1CC[C@@H](O)C1=O [Example 4, (R)-5-chloro-4-((1-(5-chloropyrimidin-2-yl)piperidin-4-yl)oxy)-5′-(3-hydroxy-2-oxopyrrolidin-1-yl)-6′-methyl-2H-[1,2′-bipyridin]-2-one] | 6% | 7% | 40% | −39% | 0.03 mg/kg | 6% | 7%

From US9174965B2, “Pyrimidinylpiperidinyloxypyridone analogues as GPR119 modulators” (BRISTOL-MYERS SQUIBB COMPANY, priority 2012, dated 2015)
